Laboratory results reported in the supplement of paper PMC10307832.

How the values were obtained:
Test in all cases: relative viability (nuclei count vs DMSO), 5 days (fraction); higher = more cells survive
KN-93 = compound: CN(C/C=C/C1=CC=C(C=C1)Cl)CC2=CC=CC=C2N(CCO)S(=O)(=O)C3=CC=C(C=C3)OC [KN-93]
Outline: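 Only plates meeting two conditions passed: control CV below 25% and at least one doubling. Lung cancer cell lines, kept overnight at 37 °C in 1536-well plates, were pinned with five library-drug doses (not always all listed) √10 apart on vehicle-anchored plates and grown 5 days without medium change. A one-step fix, permeabilisation and Hoechst stain preceded 4× imaging and MetaXpress nuclear counting. Viability equals treated-well nuclei divided by vehicle-well nuclei, as the median over plates.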

KN-93 + Dasatinib = compound: CN(C/C=C/C1=CC=C(C=C1)Cl)CC2=CC=CC=C2N(CCO)S(=O)(=O)C3=CC=C(C=C3)OC [KN-93] + Cc1nc(Nc2ncc(C(=O)Nc3c(C)cccc3Cl)s2)cc(N2CCN(CCO)CC2)n1 [Dasatinib] (partner 0.075 µM)
Outline: (§1)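 The day after seeding in 1536-well plates, lung cancer cell lines were treated by pin tool with a single drug, or with a fixed anchor-drug dose together with five library-drug doses (not always all listed) in √10 steps. After 5 days, a combined fix-and-stain solution (final 0.05% Triton X-100, 1% formaldehyde, 1 ug/ml Hoechst) was added. Nuclei counted on 4× images gave relative viability as treated counts over vehicle counts, reported as the median of duplicate plates.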

KN-93 + Vorinostat = compound: CN(C/C=C/C1=CC=C(C=C1)Cl)CC2=CC=CC=C2N(CCO)S(=O)(=O)C3=CC=C(C=C3)OC [KN-93] + O=C(CCCCCCC(=O)Nc1ccccc1)NO [Vorinostat] (partner 1 µM)
Outline: as §1

KN-93 + Lapatinib = compound: CN(C/C=C/C1=CC=C(C=C1)Cl)CC2=CC=CC=C2N(CCO)S(=O)(=O)C3=CC=C(C=C3)OC [KN-93] + CS(=O)(=O)CCNCc1ccc(-c2ccc3ncnc(Nc4ccc(OCc5cccc(F)c5)c(Cl)c4)c3c2)o1 [Lapatinib] (partner 2 µM)
Outline: as §1

KN-93 + Navitoclax = compound: CN(C/C=C/C1=CC=C(C=C1)Cl)CC2=CC=CC=C2N(CCO)S(=O)(=O)C3=CC=C(C=C3)OC [KN-93] + CC1(C)CCC(c2ccc(Cl)cc2)=C(CN2CCN(c3ccc(C(=O)NS(=O)(=O)c4ccc(N[C@H](CCN5CCOCC5)CSc5ccccc5)c(S(=O)(=O)C(F)(F)F)c4)cc3)CC2)C1 [Navitoclax] (partner 0.5 µM)
Outline: as §1

Row | Cell Line | relative viability (KN-93; 0.08 µM) | relative viability (KN-93; 0.253 µM) | relative viability (KN-93; 2.53 µM) | relative viability (KN-93; 8 µM) | relative viability (KN-93 + Dasatinib; first compound 0.08 µM) | relative viability (KN-93 + Dasatinib; first compound 0.253 µM) | relative viability (KN-93 + Dasatinib; first compound 2.53 µM) | relative viability (KN-93 + Dasatinib; first compound 8 µM) | relative viability (KN-93 + Vorinostat; first compound 0.08 µM) | relative viability (KN-93 + Vorinostat; first compound 0.253 µM) | relative viability (KN-93 + Vorinostat; first compound 2.53 µM) | relative viability (KN-93 + Vorinostat; first compound 8 µM) | relative viability (KN-93 + Lapatinib; first compound 0.08 µM) | relative viability (KN-93 + Lapatinib; first compound 0.253 µM) | relative viability (KN-93 + Lapatinib; first compound 2.53 µM) | relative viability (KN-93 + Lapatinib; first compound 8 µM) | relative viability (KN-93 + Navitoclax; first compound 0.08 µM) | relative viability (KN-93 + Navitoclax; first compound 0.253 µM) | relative viability (KN-93 + Navitoclax; first compound 2.53 µM) | relative viability (KN-93 + Navitoclax; first compound 8 µM)
1 | EMC-BAC-2 | 1.05 | 1.04 | 1.08 | 0.794 | 0.299 | 0.366 | 0.3 | 0.272 | 0.51 | 0.534 | 0.399 | 0.345 | 0.852 | 0.956 | 0.943 | 0.625 | 0.845 | 1.32 | 1.37 | 1.05
2 | A-427 | 1.03 | 1.21 | 0.976 | 0.531 | 0.71 | 0.668 | 0.672 | 0.324 | 0.856 | 0.862 | 0.868 | 0.59 | 1.21 | 1.28 | 1.05 | 0.878 | 0.93 | 0.843 | 0.991 | 0.664
3 | LCLC-103H | 0.869 | 1.14 | 0.945 | 0.812 | 0.438 | 0.464 | 0.438 | 0.26 | 0.782 | 0.768 | 0.658 | 0.573 |  |  |  |  |  |  |  | 
4 | NCI-H2342 | 0.911 | 0.959 | 0.977 | 0.818 | 0.277 | 0.327 | 0.354 | 0.277 | 0.635 | 0.8 | 0.835 | 0.719 |  |  |  |  |  |  |  | 
5 | NCI-H1793 | 0.742 | 0.984 | 1.11 | 0.264 | 0.406 | 0.374 | 0.407 | 0.169 | 0.882 | 0.565 | 0.89 | 0.249 |  | 0.804 | 0.992 | 0.556 |  | 0.398 | 0.385 | 0.244
6 | LU99A | 0.953 | 0.951 | 1.01 | 0.74 | 0.479 | 0.59 | 0.419 | 0.406 | 0.282 | 0.48 | 0.535 | 0.343 | 1.16 | 1.21 | 0.797 | 0.89 | 0.86 | 0.787 | 0.763 | 0.609
7 | NCI-H358 | 0.834 | 1.04 | 0.916 | 0.539 | 0.182 | 0.168 | 0.15 | 0.148 | 0.659 | 0.79 | 0.824 | 0.459 | 0.49 | 0.528 | 0.444 | 0.291 |  |  |  | 
8 | NCI-H2085 | 0.951 | 1.01 | 1.05 | 0.81 | 0.237 | 0.254 | 0.231 | 0.268 | 0.791 | 0.747 | 0.747 | 0.578 | 0.816 | 0.695 | 0.803 | 0.541 | 1.04 | 1.21 | 1.23 | 0.867
9 | NCI-H661 | 0.938 | 1.02 | 0.968 | 0.583 | 1.01 | 0.808 | 0.69 | 0.413 | 0.703 | 0.923 | 0.641 | 0.535 | 0.484 | 0.511 | 0.448 | 0.447 |  |  |  | 
